The text below walks through data of patent USRE39282E1, “Nucleic acid derivatives” (SmithKline Beecham Corporation, priority 1989, dated 2006).

Read-outs that look alike come from different tables or passages of the source.

This test concerns HIV-1 isolates. Briefly: plaque-reduction assay with HT4-6C cell monolayers, HIV isolates from untreated and treated individuals. Type of test: cell-based. On the procedure:
The isolation of HIV-1 was achieved according to methodology reported by Larder et al. PBL samples were prepared by separation on “Ficoll-hypaque” gradients and co-cultivated directly with MT-2 cells (approximately 10^6 of each) after pre-stimulation for 24 to 72 hours with phytohaemag-glutinin (3 μg/ml). In many cases PBLs were cultured after long-term frozen storage. Cultures were maintained in RPMI 1640 supplemented with 10% fetal bovine serum, antibiotics, 2% interleukin-2, and polybrene (2 μg/ml) and expanded by addition of fresh MT-2 cells when a cytopathic effect was observed (between 4 and 14 days). HIV replication was confirmed by the detection of p24 antigen in culture supernatants (p24 antigen detection kit, Abbott, Chicago, Ill.). Virus were prepared from infected cultures and stored in aliquots at −70° C. […] (Larder, B. A., Darby, G., Richman, D., Science, 243, 1731, (1989)).
In general terms: In a plaque reduction assay, fewer plaques than in the control indicate reduced infectivity or spread.

As to `Cc1cn([C@H]2C[C@H](N=[N+]=[N-])[C@@H](CO)O2)c(=O)[nH]c1=O` [zidovudine, 3′-Azido-3′-deoxythymidine], the IC50 by setting is: (Human immunodeficiency virus 1, read-out: ZIDOVUDINE SENSITIVITY (ID50 μM), HIV isolate A012D, 26 months of therapy, RT 67 Asn, 70 Arg, 215 Phe, 219 Gln) 2 µM; (Human immunodeficiency virus 1, read-out: ZIDOVUDINE SENSITIVITY (ID50 μM), HIV isolate A018C, 14 months of therapy, RT 67 Asn, 70 Arg, 215 Tyr, 219 Gln) 2.3 µM; (Human immunodeficiency virus 1, read-out: ZIDOVUDINE SENSITIVITY (ID50 μM), HIV isolate A036C, 11 months of therapy, RT 67 Asp, 70 Lys, 215 Tyr, 219 Lys) 0.6 µM; (Human immunodeficiency virus 1, read-out: ZIDOVUDINE SENSITIVITY (ID50 μM), HIV isolate A036D, 20 months of therapy, RT 67 Asn, 70 Arg, 215 Tyr, 219 Lys) 5.6 µM; (Human immunodeficiency virus 1, read-out: ZIDOVUDINE SENSITIVITY (ID50 μM), HIV isolate P022C, 16 months of therapy, RT 67 Asn, 70 Arg, 215 Phe, 219 Gln) 1.4 µM; (Human immunodeficiency virus 1, read-out: ZIDOVUDINE SENSITIVITY (ID50 μM), HIV isolate P035A, 6 months of therapy, RT 67 Asp, 70 Lys, 215 Tyr, 219 Lys) 0.56 µM. Also, the IC50 runs as follows: (Human immunodeficiency virus 1, read-out: ZIDOVUDINE SENSITIVITY (Mean ID50, μM), HIV isolate A012D, Table 2) 2.56 µM; (Human immunodeficiency virus 1, read-out: Zidovudine Sensitivity (ID50 μM), HIV isolate A001A, 0 months of therapy, RT sequence wild type, Table 3) 0.03 µM; (Human immunodeficiency virus 1, read-out: Zidovudine Sensitivity (ID50 μM), HIV isolate A001B, 12 months of therapy, RT sequence R70 and N67 R70 Q219, Table 3) 0.11 µM; (Human immunodeficiency virus 1, read-out: Zidovudine Sensitivity (ID50 μM), HIV isolate A012D, 26 months of therapy, RT N67 R70 F215 Q219, Table 3) 2 µM; (Human immunodeficiency virus 1, read-out: Zidovudine Sensitivity (ID50 μM), HIV isolate A018C, 14 months of therapy, RT N67 R70 Y215 Q219, Table 3) 4 µM; (Human immunodeficiency virus 1, read-out: Zidovudine Sensitivity (ID50 μM), HIV isolate A025A, 24 months of therapy, RT R70, Table 3) 0.11 µM. Moreover, the IC50 turned out to be 0.67 µM (Human immunodeficiency virus 1, read-out: Zidovudine Sensitivity (ID50 μM), HIV isolate A036C, 11 months of therapy, RT Y215, Table 3) and 5.6 µM (Human immunodeficiency virus 1, read-out: Zidovudine Sensitivity (ID50 μM), HIV isolate A036D, 20 months of therapy, RT N67 R70 Y215, Table 3).
